Consider three compounds from ChEMBL document CHEMBL4024772, “Aniline-Based Inhibitors of Influenza H1N1 Virus Acting on Hemagglutinin-Mediated Fusion” (J Med Chem, 2018).

Each structure is given as a SMILES string.

Holding throughout (test): microbe, parasite or virus in culture
Common to all, as to type: functional, cell-based
Common to all, as to conditions: MDCK

Experiment [1] concerns Influenza A virus.
Experiment [2] deals with Influenza A virus. This is another data set of the same source.
Experiment [3] deals with Influenza A virus. The source holds these as a separate data set.

With `CC(C)c1ccccc1NCCN1CCCCCC1`, the half-maximal effective concentration (EC50) (commonly the midpoint of the concentration-response curve) was greater than 100 µM in experiment [1], greater than 100 µM in experiment [2] and 1.5 µM in experiment [3].
For `CC(C)c1ccccc1NCCN1CCCCC1`, the concentration for a half-maximal effect (EC50) in experiment [1] is greater than 100 µM; in experiment [2], greater than 100 µM; in experiment [3], 2.3 µM.
As to `NC(=O)c1ncn([C@@H]2O[C@H](CO)[C@@H](O)[C@H]2O)n1` [RIBAVIRIN], the response in experiment [3] was half-maximal at 15 µM (EC50). This lies in the double-digit micromolar range.
